Results published in patent publication US20260001849A1, “NOVEL B0AT1 INHIBITOR” (MITSUBISHI TANABE PHARMA CORPORATION, priority 2023, published 2026).
Where two headings read alike, the source gives them in different places.

Tests used:
Human BOAT1 = biological target: T1, Human BOAT1 (Homo sapiens, UniProt Q695T7); assay: hBOAT1 inhibitory test (phenylalanine uptake); format: cell-based; conditions: Human BOAT1 stable expression CHO cells, phenylalanine 0.25 mM, read-out: hB0AT1 IC50
T1 construct: expressed in transfected cells
T1 sequence (Q695T7 1-634): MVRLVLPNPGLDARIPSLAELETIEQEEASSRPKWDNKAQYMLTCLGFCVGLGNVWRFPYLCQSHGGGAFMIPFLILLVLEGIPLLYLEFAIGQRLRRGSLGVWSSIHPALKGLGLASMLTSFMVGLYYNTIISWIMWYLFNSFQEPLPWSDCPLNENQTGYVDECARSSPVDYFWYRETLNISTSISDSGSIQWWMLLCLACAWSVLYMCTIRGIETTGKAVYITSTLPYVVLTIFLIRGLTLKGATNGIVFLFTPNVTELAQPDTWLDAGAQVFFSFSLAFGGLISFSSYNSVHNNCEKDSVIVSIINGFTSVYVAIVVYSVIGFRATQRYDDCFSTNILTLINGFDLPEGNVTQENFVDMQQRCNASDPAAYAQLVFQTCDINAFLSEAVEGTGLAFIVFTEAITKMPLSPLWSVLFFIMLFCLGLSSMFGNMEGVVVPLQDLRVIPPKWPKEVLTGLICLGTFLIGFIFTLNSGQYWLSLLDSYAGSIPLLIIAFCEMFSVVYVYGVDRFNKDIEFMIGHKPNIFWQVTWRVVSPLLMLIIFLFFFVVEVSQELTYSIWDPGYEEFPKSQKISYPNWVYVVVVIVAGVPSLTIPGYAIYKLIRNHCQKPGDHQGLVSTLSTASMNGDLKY
In short: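 Human BOAT1 stably expressed in CHO cells (75000 cells/well) in HEPES-buffered NaCl/KCl/CaCl2/MgCl2 buffer with 0.01% BSA, compound at 0.5% DMSO, preincubated ≥30 min at ordinary temperature. Uptake of L-phenylalanine plus [3H]-L-phenylalanine (0.25 mM final) read by scintillation proximity; 100–200 min values analysed, non-specific uptake defined with […] reference inhibitor.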

hERG channel = biological target: T2, hERG channel (Homo sapiens, UniProt Q12809); assay: hERG channel inhibitory activity, whole-cell patch clamp (auto-patch clamp system); format: cell-based
T2 construct: host or cells: CHO cells
Description: Evaluation of hERG (Human Ether-a-go-go Related Gene) Channel Inhibitory Activity
The hERG channel inhibitory activity of the compound of the present invention was measured using CHO cells (B′ SYS GmbH) forcibly expressing hERG channels involved in human rapidly active delayed rectifier potassium current (IKr) by the whole-cell patch clamp method using an auto-patch clamp system (SyncroPatch384PE).
Cell suspension, extracellular fluid, intracellular fluid, and measurement plate (NPC-384 plate) were placed in the auto-patch clamp system, and hERG current measurements were performed using the whole-cell patch clamp method. The voltage protocol was set to a holding potential of −80 mV, with a depolarizing pulse preceded by −90 mV (100 ms) and followed by −80 mV (100 ms).
The depolarizing pulse was […] (500 ms), and then the hERG peak current value obtained during the ramp phase was measured when the voltage was lowered to −80 mV over 100 ms. The protocol was applied at 5-second intervals for 5 minutes for each concentration.
SyncroPatch software (manufactured by Nanion) was used for data analysis. Four concentrations were applied incrementally for each test substance, and the average hERG Peak current value obtained from the last three stimuli of each applied concentration was used as the evaluation data. The IC50 value was calculated from the inhibition rate of the current at each concentration of each test substance relative to the pre-application value using Hill's equation (Hill equation) using the relevant software.
The same experiments were also performed using the example compounds described in WO 2023/145804 as comparative example compounds 1-4.

[1] = [3H]-L-phenylalanine uptake, radioactivity after 100 to 200 min

T2 sequence (Q12809 whole entry): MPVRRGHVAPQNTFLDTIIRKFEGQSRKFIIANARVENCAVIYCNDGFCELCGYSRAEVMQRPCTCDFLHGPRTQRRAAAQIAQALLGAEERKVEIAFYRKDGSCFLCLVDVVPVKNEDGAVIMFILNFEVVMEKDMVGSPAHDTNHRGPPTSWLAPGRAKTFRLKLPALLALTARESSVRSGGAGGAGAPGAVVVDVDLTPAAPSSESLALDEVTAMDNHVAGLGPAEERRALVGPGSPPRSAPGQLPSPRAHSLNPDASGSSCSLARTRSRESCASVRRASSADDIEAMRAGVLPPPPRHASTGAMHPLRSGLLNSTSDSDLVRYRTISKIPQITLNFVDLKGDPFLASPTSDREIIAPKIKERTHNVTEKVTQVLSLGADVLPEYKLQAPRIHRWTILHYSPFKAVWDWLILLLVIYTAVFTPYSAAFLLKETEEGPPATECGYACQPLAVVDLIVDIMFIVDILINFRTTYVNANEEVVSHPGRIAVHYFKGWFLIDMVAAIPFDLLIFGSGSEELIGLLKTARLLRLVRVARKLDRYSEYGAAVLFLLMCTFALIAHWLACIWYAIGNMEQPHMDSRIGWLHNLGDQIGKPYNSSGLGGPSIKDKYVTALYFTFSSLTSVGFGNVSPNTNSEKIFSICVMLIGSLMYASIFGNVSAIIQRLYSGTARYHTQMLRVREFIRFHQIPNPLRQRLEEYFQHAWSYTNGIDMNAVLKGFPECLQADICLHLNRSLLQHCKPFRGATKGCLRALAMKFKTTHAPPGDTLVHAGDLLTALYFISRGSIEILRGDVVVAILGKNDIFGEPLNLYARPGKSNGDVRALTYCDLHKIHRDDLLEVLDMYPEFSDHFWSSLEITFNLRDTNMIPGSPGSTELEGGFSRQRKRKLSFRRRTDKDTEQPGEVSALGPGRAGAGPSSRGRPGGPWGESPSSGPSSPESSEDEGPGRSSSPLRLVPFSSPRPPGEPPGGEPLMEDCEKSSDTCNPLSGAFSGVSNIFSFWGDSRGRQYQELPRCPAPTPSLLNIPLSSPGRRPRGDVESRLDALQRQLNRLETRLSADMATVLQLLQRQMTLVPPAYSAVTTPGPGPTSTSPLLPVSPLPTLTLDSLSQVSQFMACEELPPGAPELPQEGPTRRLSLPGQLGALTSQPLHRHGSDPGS

Row | IC50 (Human BOAT1; phenylalanine uptake) [nM] | IC50 (Human BOAT1; [1]) [nM] | Compound | IC50 (hERG channel; read-out: hERG IC50) [nM] | IC50 (hERG channel; comparative example compounds of WO 2023/145804, read-out: hERG inhibition IC50) [nM]
1 |  | 146 | O=C(O)CCc1nn2c(c1Br)CN(C(=O)CNC(=O)/C=C/c1ccc(S(F)(F)(F)(F)F)cc1)CC2 [I-153] | > 30000 | 
2 |  | 67 | O=C(O)Cc1ccc2c(c1Cl)CCN(C(=O)CNC(=O)/C=C/c1ccc(C(F)(F)F)cc1)C2 [I-146] | 29900 | 
3 |  | 99 | O=C(O)Cc1cc(F)c2c(c1)CCN(C(=O)CNC(=O)/C=C/c1ccc(C(F)(F)F)cc1F)C2 [I-205] | > 30000 | 
4 |  | 127 | O=C(O)Cc1ccc2c(c1)CCN(C(=O)CNC(=O)/C=C/c1ccc(Br)cc1)C2 [I-184] | > 30000 | 
5 |  | 506 | O=C(/C=C/c1ccc(C(F)(F)F)cc1F)NCC(=O)N1CCN(CC23CC(C(=O)O)(C2)C3)CC1c1ccc(Cl)cc1 (stereo not shown) [I-250] | > 30000 | 
6 |  | 91 | O=C(O)CSc1nc2c(s1)CN(C(=O)CNC(=O)/C=C/c1ccc(C(F)(F)F)cc1F)CC2 [I-214] | > 30000 | 
7 | 2900 |  | Cc1noc([C@H]2CN(CCCC(=O)O)CCN2C(=O)CNC(=O)/C=C/c2ccc(C(F)(F)F)cc2F)n1 [I-401] | > 30000 | 
8 | 62 |  | C[C@@H]1CN(C(=O)CNC(=O)/C=C/c2ccc(C(F)(F)F)cc2F)[C@@H](c2cccc(F)c2)CN1CCCC(=O)O [I-340] | > 30000 | 
9 | 303 |  | CC(C(=O)O)c1ccc2c(c1)CCN(C(=O)CNC(=O)/C=C/c1ccc(C(F)(F)F)cc1)C2 (single isomer, unassigned) [I-286, 2-[2-[2-[[(E)-3-[4-(trifluoromethyl)phenyl]prop-2-enoyl]amino]acetyl]-3,4-dihydro-1H-isoquinolin-6-yl]propanoic acid] | > 30000 | 
10 |  | 477 | O=C(/C=C/c1ccc(C(F)(F)F)cc1)NCC(=O)N1CCc2cc(N3CCC(C(=O)O)CC3)ncc2C1 [I-173] | > 30000 | 
11 |  | 122 | O=C(O)Cc1cc2c(cc1F)CN(C(=O)CNC(=O)/C=C/c1ccc(C(F)(F)F)cc1)CC2 [I-180] | > 30000 | 
12 |  | 246 | O=C(O)CCCN1CCN(C(=O)CNC(=O)/C=C/c2ccc(C(F)(F)F)cc2)C(c2ccccc2)C1 (stereo not shown) [I-204] | > 30000 | 
13 |  | 197 | O=C(O)CCCN1CCN(C(=O)CNC(=O)/C=C/c2ccc(C(F)(F)F)cc2F)C(c2ccccc2F)C1 (stereo not shown) [I-240] | > 30000 | 
14 |  | 31 | C[C@@H]1CN(C(=O)CNC(=O)/C=C/c2ccc(C(F)(F)F)cc2F)[C@@H](c2cccc(C3CC3)c2)CN1CCC(=O)O [I-384] | 15800 | 
15 |  | 57 | N#Cc1c(CC(=O)O)ccc2c1CCN(C(=O)CNC(=O)/C=C/c1ccc(C(F)(F)F)cc1F)C2 [I-151] | > 30000 | 
16 | 91 |  | CC[C@@H]1CN(C(=O)CNC(=O)/C=C/c2ccc(C(F)(F)F)cc2F)[C@@H](c2ccccc2)CN1CCCC(=O)O [I-343] | > 30000 | 
17 |  | 295 | N#Cc1cc2c(cc1CC(=O)O)CCN(C(=O)CNC(=O)/C=C/c1ccc(C(F)(F)F)cc1F)C2 [I-225] | 26200 | 
18 |  | 101 | O=C(O)Cc1cc2c(cc1Cl)CN(C(=O)CNC(=O)/C=C/c1ccc(C(F)(F)F)cc1)CC2 [I-226] | > 30000 | 
19 | 54 |  | C[C@@H]1CN(C(=O)CNC(=O)/C=C/c2ccc(C(F)(F)F)cc2F)[C@@H](c2ccc(F)cc2)CN1CCCC(=O)O [I-338] | > 30000 | 
20 |  | 149 | O=C(O)CCc1ccc2c(c1)CCN(C(=O)CNC(=O)/C=C/c1ccc(C(F)(F)F)cc1)C2 [I-174] | > 30000 | 

More lines, now with the values behind:

Row | Compound | IC50 (Human BOAT1; phenylalanine uptake) [nM] | IC50 (Human BOAT1; [1]) [nM] | IC50 (hERG channel; read-out: hERG IC50) [nM] | IC50 (hERG channel; comparative example compounds of WO 2023/145804, read-out: hERG inhibition IC50) [nM]
21 | C[C@@H]1CN(C(=O)CNC(=O)/C=C/c2ccc(C(F)(F)F)cc2F)[C@@H](c2ccccc2)CN1CCCC(=O)O [I-261] | 30 |  | > 30000 | 
22 | Cc1cc(CC(=O)O)cc2c1CN(C(=O)CNC(=O)/C=C/c1ccc(C(F)(F)F)cc1)CC2 [I-149] |  | 132 | > 30000 | 
23 | O=C(O)Cc1ccc2c(c1)CCN(C(=O)CNC(=O)/C=C/c1ccc(C(F)(F)F)cc1)C2 [I-182] |  | 85 | > 30000 | 
24 | O=C(O)Cc1ccc2c(c1)CCN(C(=O)CNC(=O)/C=C/c1ccc(I)cc1)C2 [I-183] |  | 46 | > 30000 | 
25 | O=C(O)CCCN1CCN(C(=O)CNC(=O)/C=C/c2ccc(C(F)(F)F)cc2F)C(c2cccc(Br)c2)C1 (racemic) [I-234, 4-[3-(3-bromophenyl)-4-[2-[[(E)-3-[2-fluoro-4-(trifluoromethyl)phenyl]prop-2-enoyl]amino]acetyl]piperazin-1-yl]butanoic acid] |  | 50 | > 30000 | 
26 | O=C(/C=C/c1ccc(C(F)(F)F)cc1F)NCC(=O)N1CCCC(c2cccc(C(=O)O)c2)C1 (stereo not shown) [I-255] | 766 |  | > 30000 | 
27 | C[C@@H]1CN(C(=O)CNC(=O)/C=C/c2ccc(C(F)(F)F)cc2F)[C@@H](c2ccc(F)c(F)c2)CN1CCC(=O)O [I-348] | 45 |  | > 30000 | 
28 | N#Cc1cc(CC(=O)O)cc2c1CN(C(=O)CNC(=O)/C=C/c1ccc(I)cc1F)CC2 [I-157] |  | 102 | > 30000 | 
29 | C[C@@H]1CN(C(=O)CNC(=O)/C=C/c2ccc(C(F)(F)F)cc2F)[C@@H](c2ccc3ccccc3c2)CN1CCCC(=O)O [I-398] | 42 |  | 25600 | 
30 | O=C(O)CCCN1CCN(C(=O)CNC(=O)/C=C/c2ccc(C(F)(F)F)cc2F)C(c2ccc(Cl)cc2)C1 (racemic) [I-236, 4-[3-(4-chlorophenyl)-4-[2-[[(E)-3-[2-fluoro-4-(trifluoromethyl)phenyl]prop-2-enoyl]amino]acetyl]piperazin-1-yl]butanoic acid] |  | 94 | > 30000 | 
31 | O=C(/C=C/c1ccc(C(F)(F)F)cc1)NCC(=O)N1CCc2cc([C@@H]3C[C@H]3C(=O)O)ccc2C1 (single isomer, unassigned) [I-288, (1R*,2R*)-2-[2-[2-[[(E)-3-[4-(trifluoromethyl)phenyl]prop-2-enoyl]amino]acetyl]-3,4-dihydro-1H-isoquinolin-6-yl]cyclopropane-1-carboxylic acid] | 152 |  | > 30000 | 
32 | Cc1cccc([C@H]2CN(CCCC(=O)O)[C@H](C)CN2C(=O)CNC(=O)/C=C/c2ccc(C(F)(F)F)cc2F)c1 [I-385] |  | 70 | 21000 | 
33 | O=C(O)CCCN1CCN(C(=O)CNC(=O)/C=C/c2ccc(C(F)(F)F)cc2F)[C@@H](c2ccc(Br)cc2)C1 [I-232] |  | 30 | 19300 | 
34 | CC(C(=O)O)c1ccc2c(c1)CCN(C(=O)CNC(=O)/C=C/c1ccc(C(F)(F)F)cc1)C2 (racemic) [I-171] |  | 91 | > 30000 | 
35 | C[C@@H]1CN(C(=O)CNC(=O)/C=C/c2ccc(C(F)(F)F)cc2F)[C@@H](c2cccnc2)CN1CCCC(=O)O [I-395] | 636 |  | > 30000 | 
36 | O=C(O)Cc1ccc2c(c1)CCN(C(=O)CNC(=O)/C=C/c1ccc(I)cc1F)C2 [I-158] |  | 83 | > 30000 | 
37 | CC(C(=O)O)c1ccc2c(c1)CCN(C(=O)CNC(=O)/C=C/c1ccc(C(F)(F)F)cc1)C2 (single isomer, unassigned) [I-287, 2-[2-[2-[[(E)-3-[4-(trifluoromethyl)phenyl]prop-2-enoyl]amino]acetyl]-3,4-dihydro-1H-isoquinolin-6-yl]propanoic acid] | 178 |  | > 30000 | 
38 | N#Cc1c(CC(=O)O)ccc2c1CCN(C(=O)CNC(=O)/C=C/c1ccc(C(F)(F)F)cc1)C2 [I-150] |  | 182 | 24900 | 
39 | O=C(O)CCCN1CCN(C(=O)CNC(=O)/C=C/c2ccc(C(F)(F)F)cc2F)C(c2ccc(Cl)c(F)c2)C1 (stereo not shown) [I-257] | 108 |  | 29600 | 
40 | O=C(/C=C/c1ccc(C(F)(F)F)cc1)NCC(=O)N1CCc2ncsc2C1 [Comparative Example compound 4, reference compound] |  |  |  | 5960
